This note sets out measurements from patent US20230062100A1, “SUBSTITUTED AMINOQUINOLONES AS DGKALPHA INHIBITORS FOR IMMUNE ACTIVATION” (Bayer Aktiengesellschaft, priority 2019, published 2023).

pIC50: −log10 of the molar value.

The target in this assay is DGKα (Homo sapiens, UniProt P23743). The assay is described as follows: Human DGKα kinase activity inhibition assay (ADP-Glo). It is filed as biochemical. Particulars: in vitro human DGKα kinase activity inhibition assay. In short, it runs like this: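 C-terminally FLAG-tagged full-length human DGKα from baculovirus/insect cells (typically ~0.1 nM) phosphorylated 1,2-dioleoyl-sn-glycerol in octyl-β-D-glucopyranoside micelles in MOPS pH 7.4. ADP formed was quantified by ADP-Glo luminescence after 1 h ATP depletion at 22 °C.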
DGKα, sequence (P23743 with tags, fused parts or gaps): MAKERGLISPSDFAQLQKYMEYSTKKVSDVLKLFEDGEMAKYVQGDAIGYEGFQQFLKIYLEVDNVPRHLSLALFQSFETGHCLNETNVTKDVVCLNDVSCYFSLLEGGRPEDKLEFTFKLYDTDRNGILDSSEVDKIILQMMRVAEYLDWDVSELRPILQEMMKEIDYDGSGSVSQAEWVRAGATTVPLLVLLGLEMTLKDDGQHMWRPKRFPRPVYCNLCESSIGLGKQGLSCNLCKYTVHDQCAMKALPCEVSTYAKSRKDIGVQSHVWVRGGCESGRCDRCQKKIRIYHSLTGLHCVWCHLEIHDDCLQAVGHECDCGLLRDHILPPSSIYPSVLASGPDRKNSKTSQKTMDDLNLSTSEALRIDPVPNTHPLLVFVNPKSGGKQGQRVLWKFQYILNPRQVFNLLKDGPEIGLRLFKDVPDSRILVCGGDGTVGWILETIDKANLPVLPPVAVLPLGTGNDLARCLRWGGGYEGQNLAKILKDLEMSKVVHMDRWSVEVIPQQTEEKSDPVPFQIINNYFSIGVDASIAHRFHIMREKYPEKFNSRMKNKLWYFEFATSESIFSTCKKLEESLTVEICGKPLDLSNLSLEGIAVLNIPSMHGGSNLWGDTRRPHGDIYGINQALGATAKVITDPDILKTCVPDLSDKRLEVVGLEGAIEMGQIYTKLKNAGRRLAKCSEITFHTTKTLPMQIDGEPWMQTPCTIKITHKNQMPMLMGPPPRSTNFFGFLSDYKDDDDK
On the technique in general: ADP-Glo first removes unused ATP, then detects ADP through luciferase.
As to `CC(C)Oc1ccc(OC2CCN(c3c(C#N)c(=O)n(C)c4ccccc34)CC2)cc1` [Example 47, 1-methyl-2-oxo-4-(4-{4-[(propan-2-yl)oxy]phenoxy}piperidin-1-yl)-1,2-dihydroquinoline-3-carbonitrile], the pIC50 (in general, the IC50 on a negative log10 scale, so that one unit is a factor of ten) was 8.07.

`COCCc1ccc2c(N3CCC(Oc4cccc(OC(F)(F)F)c4)CC3)c(C#N)c(=O)n(C)c2c1` [Example 76, 7-(2-methoxyethyl)-1-methyl-2-oxo-4-{4-[3-(trifluoromethoxy)phenoxy]piperidin-1-yl}-1,2-dihydroquinoline-3-carbonitrile] had a negative logarithm of the IC50 (pIC50) of 8.17. Compound `Cn1c(=O)c(C#N)c(N2CCC(Oc3ccc(C4CC4)cc3)CC2)c2ccccc21` [Example 37, 4-[4-(4-cyclopropylphenoxy)piperidin-1-yl]-1-methyl-2-oxo-1,2-dihydroquinoline-3-carbonitrile] showed a pIC50 of 8.00.

As for `Cn1c(=O)c(C#N)c(N2CCCC(Oc3ccc(OC(F)(F)F)cc3)CC2)c2ccccc21` (single isomer, unassigned; enantiomer 2) [Example 102, 1-methyl-2-oxo-4-{4-[4-(trifluoromethoxy)phenoxy]azepan-1-yl}-1,2-dihydroquinoline-3-carbonitrile, enantiomer 2], the pIC50 was 7.74.

The compound `Cc1ccc2c(c1)c(N1CCC(Oc3ccccc3Cl)CC1)c(C#N)c(=O)n2C` [Example 151, 4-[4-(2-chlorophenoxy)piperidin-1-yl]-1,6-dimethyl-2-oxo-1,2-dihydroquinoline-3-carbonitrile] had a negative logarithm of the IC50 (pIC50) of 7.22. In the case of `Cn1c(=O)c(C#N)c(N2CCC(Sc3ccccc3)CC2)c2cc(C#N)ccc21` [Example 144, 1-methyl-2-oxo-4-[4-(phenylsulfanyl)piperidin-1-yl]-1,2-dihydroquinoline-3,6-dicarbonitrile], the pIC50 was 8.52. The compound `Cn1cc(-c2ccc(OC3CCCN(c4c(C#N)c(=O)n(C)c5ccccc45)CC3)cc2)cn1` (racemic) [Example 105, (rac)-1-methyl-4-{4-[4-(1-methyl-1H-pyrazol-4-yl)phenoxy]azepan-1-yl}-2-oxo-1,2-dihydroquinoline-3-carbonitrile] showed a pIC50 of 7.48. For the compound `Cn1c(=O)c(C(N)=O)c(N2CCC(Oc3ccc(OC(F)(F)F)cc3)CC2)c2ccccc21` [Example 48, 1-methyl-2-oxo-4-{4-[4-(trifluoromethoxy)phenoxy]piperidin-1-yl}-1,2-dihydroquinoline-3-carboxamide], the pIC50 was 9.05. `Cn1c(=O)c(C#N)c(N2CCC(Oc3ccc(OC(F)(F)F)cc3)CC2)c2cccc(Cl)c21` [Example 131, 8-chloro-1-methyl-2-oxo-4-{4-[4-(trifluoromethoxy)phenoxy]piperidin-1-yl}-1,2-dihydroquinoline-3-carbonitrile]: the pIC50 is 7.74. `Cn1c(=O)c(C#N)c(N2CCC(Oc3cnc(C(F)(F)F)nc3)CC2)c2ccccc21` [Example 28, 1-methyl-2-oxo-4-(4-{[2-(trifluoromethyl)pyrimidin-5-yl]oxy}piperidin-1-yl)-1,2-dihydroquinoline-3-carbonitrile] showed a pIC50 of 6.28.

Compound `Cn1c(=O)c(C#N)c(N2CCC(Oc3ccc(S(C)(=O)=O)cc3)CC2)c2ccccc21` [Example 43, 4-{4-[4-(methanesulfonyl)phenoxy]piperidin-1-yl}-1-methyl-2-oxo-1,2-dihydroquinoline-3-carbonitrile] showed a negative logarithm of the IC50 (pIC50) of 6.47. Consider `COc1ccc2c(N3CCC(Oc4ccc(Cl)cc4)CC3)c(C#N)c(=O)n(C)c2c1` [Example 65, 4-[4-(4-chlorophenoxy)piperidin-1-yl]-7-methoxy-1-methyl-2-oxo-1,2-dihydroquinoline-3-carbonitrile], for which the pIC50 is 8.14.

Compound `Cn1c(=O)c(C#N)c(N2CCC(Sc3ccccc3)CC2)c2ccc(N3CCCC3=O)cc21` [Example 83, 1-methyl-2-oxo-7-(2-oxopyrrolidin-1-yl)-4-[4-(phenylsulfanyl)piperidin-1-yl]-1,2-dihydroquinoline-3-carbonitrile] gave a pIC50 of 7.85. Under `Cn1c(=O)c(C#N)c(N2CCC(Oc3ccccc3C#N)CC2)c2ccccc21` [Example 34, 4-[4-(2-cyanophenoxy)piperidin-1-yl]-1-methyl-2-oxo-1,2-dihydroquinoline-3-carbonitrile] stands 8.05; under `Cc1ccc2c(N3CCC(Oc4ccc(OC(F)(F)F)cc4)CC3)c(C#N)c(=O)n(C)c2c1` [Example 67, 1,7-dimethyl-2-oxo-4-{4-[4-(trifluoromethoxy)phenoxy]piperidin-1-yl}-1,2-dihydroquinoline-3-carbonitrile], 8.19; under `Cn1c(=O)c(C#N)c(N2CCC(Oc3cccc(Cl)c3)CC2)c2ccccc21` [Example 9, 4-[4-(3-chlorophenoxy)piperidin-1-yl]-1-methyl-2-oxo-1,2-dihydroquinoline-3-carbonitrile], 8.04. With `Cn1c(=O)c(C#N)c(N2CCC(Oc3cccc(OC(F)(F)F)c3)CC2)c2ccccc21` [Example 38, 1-methyl-2-oxo-4-{4-[3-(trifluoromethoxy)phenoxy]piperidin-1-yl}-1,2-dihydroquinoline-3-carbonitrile], the pIC50 was 7.74. Then `Cn1c(=O)c(C#N)c(N2CCC(Cc3ccccc3)CC2)c2ccccc21` [Example 91, 4-(4-benzylpiperidin-1-yl)-1-methyl-2-oxo-1,2-dihydroquinoline-3-carbonitrile], with 8.35; and `Cn1c(=O)c(C#N)c(N2CCCC(Oc3ccc(N4CCC4)cc3)CC2)c2ccccc21` (racemic) [Example 104, (rac)-4-{4-[4-(azetidin-1-yl)phenoxy]azepan-1-yl}-1-methyl-2-oxo-1,2-dihydroquinoline-3-carbonitrile], with 7.40. `Cn1c(=O)c(C#N)c(N2CCC(Oc3cccc(OC(F)(F)F)c3)CC2)c2ccc(Br)cc21` [Example 61, 7-bromo-1-methyl-2-oxo-4-{4-[3-(trifluoromethoxy)phenoxy]piperidin-1-yl}-1,2-dihydroquinoline-3-carbonitrile] had a pIC50 of 7.66. Consider `Cn1c(=O)c(C(N)=O)c(N2CCC(Oc3ccc(OC(F)(F)F)cc3)CC2)c2cc(F)ccc21` [Example 165, 6-fluoro-1-methyl-2-oxo-4-{4-[4-(trifluoromethoxy)phenoxy]piperidin-1-yl}-1,2-dihydroquinoline-3-carboxamide], for which the negative logarithm of the IC50 (pIC50) was 9.77. Compound `Cn1c(=O)c(C#N)c(N2CCC(Oc3ccc(N=S(C)(C)=O)cc3)CC2)c2ccccc21` [Example 30, 4-[4-(4-{[dimethyl(oxo)-λ^6-sulfanylidene]amino}phenoxy)piperidin-1-yl]-1-methyl-2-oxo-1,2-dihydroquinoline-3-carbonitrile] had a pIC50 of 5.82.

Compound `Cn1c(=O)c(C#N)c(N2CCC(Oc3ccc(C(F)(F)F)cc3)CC2)c2ccccc21` [Example 13, 1-methyl-2-oxo-4-{4-[4-(trifluoromethyl)phenoxy]piperidin-1-yl}-1,2-dihydroquinoline-3-carbonitrile] had a pIC50 of 7.85. In the case of `Cn1c(=O)c(C#N)c(N2CCC(Oc3ccc(F)cc3)CC2)c2ccccc21` [Example 6, 4-[4-(4-fluorophenoxy)piperidin-1-yl]-1-methyl-2-oxo-1,2-dihydroquinoline-3-carbonitrile], the negative logarithm of the IC50 (pIC50) is 8.08. On to `Cn1c(=O)c(C#N)c(N2CCC(Oc3ccc(OC(F)(F)F)cc3)CC2)c2cccc(P(C)(C)=O)c21` [Example 135, 8-(dimethylphosphoryl)-1-methyl-2-oxo-4-{4-[4-(trifluoromethoxy)phenoxy]piperidin-1-yl}-1,2-dihydroquinoline-3-carbonitrile], for which the pIC50 was 5.86. Compound `Cn1c(=O)c(C#N)c(N2CCC(Oc3ccc(F)cc3)CC2)c2ccc(N3CCCC3=O)cc21` [Example 84, 4-[4-(4-fluorophenoxy)piperidin-1-yl]-1-methyl-2-oxo-7-(2-oxopyrrolidin-1-yl)-1,2-dihydroquinoline-3-carbonitrile] gave a negative logarithm of the IC50 (pIC50) of 7.60.

`Cn1c(=O)c(C#N)c(N2CCC(Oc3cccc(OC(F)(F)F)c3)CC2)c2ccc(C3COC3)cc21` [Example 77, 1-methyl-7-(oxetan-3-yl)-2-oxo-4-{4-[3-(trifluoromethoxy)phenoxy]piperidin-1-yl}-1,2-dihydroquinoline-3-carbonitrile] had a negative logarithm of the IC50 (pIC50) of 7.77. As for `COc1cc(C)ccc1OC1CCN(c2c(C(N)=O)c(=O)n(C)c3ccc(C)cc23)CC1` [Example 161, 4-[4-(2-methoxy-4-methylphenoxy)piperidin-1-yl]-1,6-dimethyl-2-oxo-1,2-dihydroquinoline-3-carboxamide], the pIC50 is 7.68.

The compound `Cn1c(=O)c(C#N)c(N2CCC(OCc3ccccc3F)CC2)c2ccccc21` [Example 111, 4-{4-[(2-fluorophenyl)methoxy]piperidin-1-yl}-1-methyl-2-oxo-1,2-dihydroquinoline-3-carbonitrile] showed a pIC50 of 8.32. With `Cn1c(=O)c(C#N)c(N2CCC(C)(Oc3ccc(Br)cc3)CC2)c2ccccc21` [Example 42, 4-[4-(4-bromophenoxy)-4-methylpiperidin-1-yl]-1-methyl-2-oxo-1,2-dihydroquinoline-3-carbonitrile], the negative logarithm of the IC50 (pIC50) was 7.57. Take `Cn1c(=O)c(C#N)c(N2CCCC(Oc3ccc(Br)cc3)CC2)c2ccccc21` (racemic) [Example 103, (rac)-4-[4-(4-bromophenoxy)azepan-1-yl]-1-methyl-2-oxo-1,2-dihydroquinoline-3-carbonitrile]: the pIC50 is 7.74. Under `COc1ccc2c(c1)c(N1CCC(Oc3ccc(OC(F)(F)F)cc3)CC1)c(C#N)c(=O)n2C` [Example 156, 6-methoxy-1-methyl-2-oxo-4-{4-[4-(trifluoromethoxy)phenoxy]piperidin-1-yl}-1,2-dihydroquinoline-3-carbonitrile] stands 8.15; under `COCCc1ccc2c(N3CCC(Oc4cccc(Cl)c4)CC3)c(C#N)c(=O)n(C)c2c1` [Example 74, 4-[4-(3-chlorophenoxy)piperidin-1-yl]-7-(2-methoxyethyl)-1-methyl-2-oxo-1,2-dihydroquinoline-3-carbonitrile], 8.46.
